In PMC9135895, “The effects of two gold-N-heterocyclic carbene (NHC) complexes in ovarian cancer cells: a redox proteomic study” (Cancer Chemotherapy and Pharmacology, 2022) one finds EC50 data, which are given here for 2 compounds.

Test [1] addresses T1, Glyceraldehyde-3-phosphate dehydrogenase (GAPDH) (Homo sapiens, UniProt P04406).
T1 construct: endogenous GAPDH in A2780 cell extract
Briefly: GAPDH activity ([…] nm) in A2780 crude cell extract after […] min pre-incubation. The format is biochemical.

In test [2] the target is T1, Glyceraldehyde-3-phosphate dehydrogenase (GAPDH). Briefly: GAPDH activity ([…] nm) in A2780 crude cell extract after […] min pre-incubation; no adduct seen by ESI-MS with rabbit GAPDH. It counts as biochemical.

T1 sequence (P04406 2-335): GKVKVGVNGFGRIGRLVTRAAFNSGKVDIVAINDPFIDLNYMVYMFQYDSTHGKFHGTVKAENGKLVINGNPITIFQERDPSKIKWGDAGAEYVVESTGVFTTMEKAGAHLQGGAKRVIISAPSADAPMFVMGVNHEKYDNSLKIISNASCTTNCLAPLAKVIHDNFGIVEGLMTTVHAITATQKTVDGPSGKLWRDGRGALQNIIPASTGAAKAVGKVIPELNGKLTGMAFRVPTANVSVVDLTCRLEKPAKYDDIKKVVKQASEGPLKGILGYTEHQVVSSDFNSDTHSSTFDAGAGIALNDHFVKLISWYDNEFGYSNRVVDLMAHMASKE

One may read the EC50 as the concentration giving half of the maximal effect. The low end stands for greater potency, the high end for weaker potency. As to `CCCCn1cc[n+](C)[c]1[Au-][Cl]` [compound 1, chlorido (1-butyl-3-methyl-imidazole-2-ylidene) gold(I)], the response in test [1] was half-maximal at 2.86 ± 0.3 µM (EC50).

In the case of `CCCCn1cc[n+](C)[c]1[AuH][c]1n(CCCC)cc[n+]1C` [compound 2, bis(1-butyl-3-methyl-imidazole-2-ylidene) gold(I)], it took 7.13 ± 0.1 µM to reach a half-maximal effect in test [2] (EC50).
